Measured values published in PubChem BioAssay (NCI).
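Five compound concentrations were applied to cells in 96-well plates for 48 hours; endpoints were derived by simple linear interpolation of the resulting dose-response curve. Abbreviation: GI50, concentration required for 50% inhibition of growth. TGI is the concentration that stops growth completely.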

How the values were obtained:
Test in all cases: NCI-60 cell line screen, 48 h
A498 renal = test system: A498 renal
CCRF-CEM leukemia = test system: CCRF-CEM leukemia
SF-268 CNS = test system: SF-268 CNS
SF-539 CNS = test system: SF-539 CNS
SNB-19 CNS = test system: SNB-19 CNS
SNB-75 CNS = test system: SNB-75 CNS
SW-620 colon = test system: SW-620 colon
U251 CNS = test system: U251 CNS
UACC-257 melanoma = test system: UACC-257 melanoma
TK-10 renal = test system: TK-10 renal

SMILES | TGI (A498 renal) | TGI (CCRF-CEM leukemia) | TGI (SF-268 CNS) | TGI (SF-539 CNS) | TGI (SNB-19 CNS) | TGI (SNB-75 CNS) | TGI (SW-620 colon) | TGI (U251 CNS) | TGI (UACC-257 melanoma) | GI50 (CCRF-CEM leukemia) | GI50 (SF-268 CNS) | GI50 (SNB-19 CNS) | GI50 (SW-620 colon) | GI50 (TK-10 renal) | TGI (TK-10 renal) | GI50 (U251 CNS) | GI50 (UACC-257 melanoma) | GI50 (A498 renal) | GI50 (SF-539 CNS) | GI50 (SNB-75 CNS)
Cc1cc(Cl)ccc1NC(=O)C(=O)C(C(=O)c1ccc2ccccc2c1)C1OC(=O)c2ccccc21 (stereo unspecified) | 25.6 µM | 22.2 µM | 60.5 µM | 17.4 µM | 18.3 µM | 49.2 µM | 84.6 µM | 21.2 µM | 47.8 µM |  |  |  |  |  |  |  |  |  |  | 
COc1ccc(OC)c(-c2cc(-c3ccc(Cl)cc3)nn2-c2ccc(S(=O)(=O)NC(C)=O)cc2)c1 |  | 73.5 µM | 60.9 µM |  | 28.7 µM |  | 22.2 µM | 10.3 µM | 34.2 µM | 20 µM | 21.1 µM | 10.6 µM | 5.39 µM | 19.3 µM | 38.2 µM | 2.9 µM | 16.8 µM |  |  | 
COc1cccc(NC(=O)c2sc3nc4c(cc3c2N)C(=O)CCC4)c1 | 0.83 µM | > 100 µM | > 100 µM | 0.587 µM | > 100 µM | 12.7 µM | > 100 µM | 10.4 µM |  | 0.0893 µM | 0.725 µM | 1.72 µM | 0.0571 µM | > 100 µM | > 100 µM | 0.158 µM |  | 0.0521 µM | 0.108 µM | 0.0579 µM
C=C(Nc1ccc([N+](=O)[O-])cc1[N+](=O)[O-])c1c/c(=N\NC(N)=S)c2ccccc2o1 |  | > 100 µM | > 100 µM | 55.7 µM | > 100 µM | > 100 µM | > 100 µM | > 100 µM | > 100 µM |  |  |  |  |  | > 100 µM |  |  |  |  | 
CCn1c(-c2cc3ccccc3cc2O)nn(C(=O)c2c(Cl)cccc2Cl)c1=S |  | > 50 µM | > 50 µM | > 50 µM | > 50 µM | > 50 µM | > 50 µM | > 50 µM | > 50 µM | 27.1 µM | > 50 µM | > 50 µM | 15.3 µM |  |  | 19.5 µM | > 50 µM |  | > 50 µM | 42.5 µM
CCC(CNc1cc(OC)cc2cccnc12)NC1CCCCC1 (stereo unspecified) | > 100 µM |  | > 100 µM | > 100 µM | > 100 µM | > 100 µM | 56.7 µM | > 100 µM | > 100 µM |  | 33.2 µM | 89.7 µM | 19.4 µM |  |  | 43.3 µM | 41.1 µM | 29.7 µM | 56.8 µM | 21.3 µM
CN(C)C=C1C(Cl)=C(C=O)CC(C=O)=C1Cl |  | 10.6 µM | 27.6 µM | 27.9 µM | 27.3 µM | 29.5 µM | 7.3 µM | 23.7 µM | 30.8 µM |  |  |  |  |  | 31.8 µM |  |  |  |  | 
O=C(Nc1cccc(O)c1)C(=O)C(C(=O)c1ccc(Cl)c(Cl)c1)C1OC(=O)c2ccccc21 (stereo unspecified) | 41.9 µM | 55.5 µM | 33.7 µM |  | 37.8 µM | 71.4 µM | 29 µM | 21.3 µM | 55.6 µM |  |  |  |  |  | 60.3 µM |  |  |  |  | 
COc1cc(CNc2ccccc2C(=O)N2CCN(C(=O)c3cc(-c4cc(OC)c(OC)c(OC)c4)n4nc(-c5ccccc5)cc4n3)CC2)cc(OC)c1OC | 20.8 µM |  | > 100 µM | > 100 µM | > 100 µM | > 100 µM | > 100 µM | 70.3 µM | > 100 µM |  | 4.89 µM | 6.73 µM | 3.67 µM | 6.85 µM | > 100 µM | 3.37 µM | 4.97 µM | 2.15 µM | 2.54 µM | 1.98 µM
CC(C)(C)C1CCC2c3c([nH]c4ccccc34)C3C(=O)N(c4ccccc4)C(=O)C3C2C1 (stereo unspecified) | 5.99 µM | 11 µM | 52.5 µM | 23.5 µM | 22.5 µM | 6.04 µM | 41 µM | 11 µM |  |  |  |  |  |  | 12.5 µM |  |  |  |  | 
CSc1n[n+]2c(s1)SCCC2 |  | > 100 µM | > 100 µM | > 100 µM | > 100 µM | > 100 µM | > 100 µM | > 100 µM | > 100 µM |  |  |  |  |  | > 100 µM |  |  |  |  | 
CC(=O)[CH-]C(=O)c1ccccc1.CC(=O)[CH-]C(=O)c1ccccc1.CCOCC[O-].CCOCC[O-].[Ti+4] | 47.9 µM |  | 34.8 µM | 50.4 µM | 38.6 µM | 43.8 µM | > 100 µM | 42.2 µM | > 100 µM |  | 13.8 µM | 18.1 µM | 28.3 µM |  |  | 16 µM | 33.8 µM | 22.9 µM | 19.1 µM | 16.6 µM
Cn1c2ccc(Br)cc2c2c3c(c4c5ccccc5[nH]c4c21)C(=O)N(O)C3=O |  | 0.956 µM | 0.72 µM | 0.217 µM | 0.696 µM | 0.425 µM | 0.394 µM | 0.266 µM |  | 0.0412 µM | 0.0763 µM | 0.0777 µM | 0.0787 µM | 0.655 µM | 1.42 µM | 0.0865 µM |  |  | 0.073 µM | 0.164 µM
CC(=O)On1c(-c2ccccc2-c2nc3ccccc3n2OC(C)=O)nc2ccccc21 |  | > 100 µM | > 100 µM | > 100 µM | > 100 µM | > 100 µM | > 100 µM | > 100 µM | > 100 µM |  |  |  |  |  | > 100 µM |  |  |  |  | 
O=c1c2cccc3cccc(c4n1CCN=4)c32 | > 100 µM | > 100 µM | > 100 µM | > 100 µM |  | > 100 µM | > 100 µM | > 100 µM | > 100 µM |  |  |  |  |  | 69.1 µM |  |  |  |  | 
C=C[C@@]1(O)CCCC2=C(C(=O)OCC)CC[C@]21C |  | > 100 µM | > 100 µM | > 100 µM | > 100 µM |  | > 100 µM | > 100 µM | > 100 µM |  |  |  |  |  | > 100 µM |  |  |  |  | 
O=C(OCc1ncc(-c2ccc(C(F)(F)F)cc2)c(NC2CCCCCC2)n1)c1c(F)c(F)c(F)c(F)c1F | 33.2 µM | 7.02 µM | 28 µM | 30.7 µM | 27.7 µM | 25.9 µM | 26.6 µM |  | 35 µM | 1.83 µM | 12.9 µM | 14.1 µM | 7.21 µM | 21.5 µM | 37 µM |  | 17.5 µM | 18.7 µM | 16.3 µM | 13 µM
FC(F)(F)C1(Br)C(c2ccccc2)=C1c1ccccc1 |  | 30.2 µM | 43.9 µM | 37 µM | 59.2 µM | 88.6 µM | 33.5 µM | 30.2 µM | 43 µM |  |  |  |  |  | 48.6 µM |  |  |  |  | 
